# Values of other authors as cited in paper PMC7395068, “The evolution of strategies to minimise the risk of human drug-induced liver injury (DILI) in drug discovery and development” (Archives of Toxicology, 2020).
# Structures can show the parent of a compound that is named as a salt. Where two headings read alike, the source gives them in different places.
# Experiments:
# human hepatocytes = conditions: cited from earlier work; for Structural based (HCI), In vitro Assay: human hepatocyte imaging
# [1] = cited from earlier work
# [2] = ref Chen 2016; cited from earlier work
# [3] = system: THLE or HepG2 cells, isolated mitochondria, BSEP; conditions: In vitro Assay; ref Aleo 2019; cited from earlier work
# [4] = system: primary human hepatocytes, NIH3T3 fibroblasts, BSEP, CYP3A4; conditions: In vitro Assay; ref Schadt 2015; cited from earlier work
structure (smiles),measurement,setting,value
"Cl[C@H]1[C@H](Cl)[C@@H](Cl)[C@@H](Cl)[C@H](Cl)[C@H]1Cl [1,2,3,4,5,6-hexachlorocyclohexane]",Structural based (HCI),human hepatocytes,-VE
same,In vivo DILI,[1]; in vivo,+VE
CC(=O)Nc1nnc(S(N)(=O)=O)s1 [acetazolamide],Structural based (HCI),"human hepatocytes; In vitro Assay, ref Xu 2008",-VE
CC(=O)c1ccc(S(=O)(=O)NC(=O)NC2CCCCC2)cc1 [acetohexamide],Structural based (HCI),"human hepatocytes; In vitro Assay, ref Xu 2008",+VE
same,In vivo DILI,[1]; ref Xu 2008,+VE
N[C@H](C(=O)O)[C@@H]1CC(Cl)=NO1 [acivicin],Structural based (HCI),"human hepatocytes; In vitro Assay, ref Xu 2008",-VE
same,In vivo DILI,[1]; ref Xu 2008,-VE
Nc1ncnc2c1ncn2[C@@H]1O[C@H](CO)[C@@H](O)[C@H]1O [adenosine],Structural based (HCI),"human hepatocytes; In vitro Assay, ref Xu 2008",-VE
O.O=C1NC(=O)C(=O)C(=O)N1 [alloxan hydrate],Structural based (HCI),"human hepatocytes; In vitro Assay, ref Xu 2008",-VE
same,In vivo DILI,[1]; ref O'Brien 2006,+VE
same,In vivo DILI,[1]; ref Xu 2008,-VE
Nc1ccc(C(=O)O)cc1 [aminobenzoate potassium],Structural based (HCI),"human hepatocytes; In vitro Assay, ref Xu 2008",-VE
COc1cc(NS(C)(=O)=O)ccc1Nc1c2ccccc2nc2ccccc12 [amsacrine],Structural based (HCI),"human hepatocytes; In vitro Assay, ref Xu 2008",+VE
C=C1[C@@H]2CC[C@H]3[C@]4(C)C[C@H](O[C@@H]5O[C@H](CO)[C@@H](OS(=O)(=O)O)[C@H](OS(=O)(=O)O)[C@H]5OC(=O)CC(C)C)C[C@@H](C(=O)O)[C@H]4CC[C@]3(C2)[C@H]1O [atractyloside],Structural based (HCI),"human hepatocytes; In vitro Assay, ref Xu 2008",+VE
same,In vivo DILI,[1]; ref Xu 2008,+VE
C[C@H]1C[C@H]2[C@@H]3CCC4=CC(=O)C=C[C@]4(C)[C@@]3(Cl)[C@@H](O)C[C@]2(C)[C@@]1(O)C(=O)CO [beclomethasone],Structural based (HCI),human hepatocytes,-VE
same,In vivo DILI,[1]; in vivo,-VE
CCOC(=O)[C@H](CCc1ccccc1)N[C@H]1CCc2ccccc2N(CC(=O)O)C1=O [benazepril],Structural based (HCI),"human hepatocytes; In vitro Assay, ref Xu 2008",-VE
C[C@H]1C[C@H]2[C@@H]3CCC4=CC(=O)C=C[C@]4(C)[C@@]3(F)[C@@H](O)C[C@]2(C)[C@@]1(O)C(=O)CO [betamethasone],Structural based (HCI),"human hepatocytes; In vitro Assay, ref Xu 2008",-VE
same,In vivo DILI,[1]; ref Xu 2008,-VE
CC(NC(C)(C)C)C(=O)c1cccc(Cl)c1 (centres unmarked) [bupropion],Structural based (HCI),"human hepatocytes; In vitro Assay, ref Xu 2008",-VE
CS(=O)(=O)OCCCCOS(C)(=O)=O [busulphan],Structural based (HCI),"human hepatocytes; In vitro Assay, ref Xu 2008",+VE
same,In vivo DILI,[1]; ref Xu 2008,+VE
[Cl][Cd][Cl] [cadmium chloride],Structural based (HCI),"human hepatocytes; In vitro Assay, ref Xu 2008",+VE
same,In vivo DILI,[1]; ref Xu 2008,+VE
CC(C)(CO)[C@@H](O)C(=O)NCCC(=O)O [calcium pantothenate],Structural based (HCI),"human hepatocytes; In vitro Assay, ref Xu 2008",-VE
COC(=O)Nc1nc2ccccc2[nH]1 [carbendazim],Structural based (HCI),human hepatocytes,-VE
same,In vivo DILI,[1]; in vivo,+VE
C#C[C@]1(O)CC[C@H]2[C@@H]3CCC4=Cc5oncc5C[C@]4(C)[C@H]3CC[C@@]21C [danazol],Structural based (HCI),human hepatocytes,-VE
O=c1[nH]cnc2c1ncn2[C@H]1CC[C@@H](CO)O1 [didanosine],Structural based (HCI),"human hepatocytes; In vitro Assay, ref Xu 2008",-VE
CC[N+](C)(C)c1cccc(O)c1 [edrophonium chloride],Structural based (HCI),human hepatocytes,-VE
C#C[C@]1(OC(C)=O)CC[C@H]2[C@@H]3CCC4=C[C@@H](OC(C)=O)CC[C@@H]4[C@H]3CC[C@@]21C [ethynodiol diacetate],Structural based (HCI),"human hepatocytes; In vitro Assay, ref Xu 2008",-VE
Nc1nc(=O)[nH]cc1F [flucytosine],Structural based (HCI),"human hepatocytes; In vitro Assay, ref Xu 2008",+VE
COCCCC/C(=N\OCCN)c1ccc(C(F)(F)F)cc1 [fluvoxamine],Structural based (HCI),human hepatocytes,-VE
Nc1nc2ncc(CNc3ccc(C(=O)N[C@@H](CCC(=O)O)C(=O)O)cc3)nc2c(=O)[nH]1 [folate],Structural based (HCI),"human hepatocytes; In vitro Assay, ref Xu 2008",-VE
CC[N+](CC)(CC)CCOc1cccc(OCC[N+](CC)(CC)CC)c1OCC[N+](CC)(CC)CC [gallamine triethiodide],"Structural based (HCI), In vitro Assay",human hepatocytes; ref Xu 2008,-VE
NC[C@H]1O[C@H](O[C@H]2[C@H](O)[C@@H](O[C@H]3O[C@H](CO)[C@@H](O)[C@H](N)[C@H]3O)[C@H](N)C[C@@H]2N)[C@H](O)[C@@H](O)[C@@H]1O [kanamycin sulfate],Structural based (HCI),"human hepatocytes; In vitro Assay, ref Xu 2008",-VE
N=C(N)NCCC[C@H](N)C(=O)O [l-arginine],Structural based (HCI),"human hepatocytes; In vitro Assay, ref Xu 2008",-VE
C[C@H](CCC(=O)O)[C@H]1CC[C@H]2[C@@H]3CC[C@@H]4C[C@H](O)CC[C@]4(C)[C@H]3CC[C@]12C [lithocholic acid],"Structural based (HCI), In vitro Assay",human hepatocytes; ref Xu 2008,-VE
CCn1cc(C(=O)O)c(=O)c2cc(F)c(N3CCNC(C)C3)c(F)c21 (centres unmarked) [lomefloxacin],Structural based (HCI),"human hepatocytes; In vitro Assay, ref Xu 2008",-VE
O=C(O)/C=C\C(=O)O [maleic acid],Structural based (HCI),"human hepatocytes; In vitro Assay, ref Xu 2008",-VE
COC(=O)Nc1nc2ccc(C(=O)c3ccccc3)cc2[nH]1 [mebendazole],Structural based (HCI),"human hepatocytes; In vitro Assay, ref Xu 2008",+VE
COc1cccc(OC)c1C(=O)N[C@@H]1C(=O)N2[C@@H]1SC(C)(C)[C@@H]2C(=O)O [methicillin sodium],"Structural based (HCI), In vitro Assay",human hepatocytes; ref Xu 2008,-VE
CC[C@@H](CO)NC(=O)[C@@H]1C=C2c3cccc4[nH]cc(c34)C[C@H]2N(C)C1 [methylergonovine maleate],"Structural based (HCI), In vitro Assay",human hepatocytes; ref Xu 2008,-VE
Cc1nc2n(c(=O)c1CCN1CCC(c3noc4cc(F)ccc34)CC1)CCCC2O (centres unmarked) [paliperidone],"DILI +VE (5-8), DILI -VE (-4)",[2],-VE
same,DILI severity category,[2],vNo-DILI-Concern
same,In vivo DILI,[1]; ref Aleo 2019,-VE
same,Partition Hybrid HRM Score,[3],-VE
same,Ro2 Hybrid HRM Score,[3],-VE
Cn1c(=O)c2[nH]c(Br)nc2n(C)c1=O [pamabrom],"DILI +VE (5-8), DILI -VE (-4)",[2],-VE
same,DILI severity category,[2],vNo-DILI-Concern
same,In vivo DILI,[1]; ref Aleo 2019,-VE
same,Partition Hybrid HRM Score,[3],-VE
same,Ro2 Hybrid HRM Score,[3],-VE
NCCC(O)(P(=O)(O)O)P(=O)(O)O [pamidronate],Structural based (HCI),"human hepatocytes; In vitro Assay, ref Xu 2008",-VE
NC[C@@H]1O[C@H](O[C@H]2[C@@H](O)[C@H](O[C@@H]3[C@@H](O)[C@H](N)C[C@H](N)[C@H]3O[C@H]3O[C@H](CO)[C@@H](O)[C@H](O)[C@H]3N)O[C@@H]2CO)[C@H](N)[C@@H](O)[C@@H]1O [paromomycin],"Structural based (HCI), In vitro Assay",human hepatocytes; ref Xu 2008,-VE
CC1(C)S[C@@H]2[C@H](NC(=O)Cc3ccccc3)C(=O)N2[C@H]1C(=O)O [penicillin g],Structural based (HCI),"human hepatocytes; In vitro Assay, ref Xu 2008",-VE
CCOc1ccc(NC(C)=O)cc1 [phenacetin],Structural based (HCI),"human hepatocytes; In vitro Assay, ref Xu 2008",+VE
CC(C(=O)O)c1ccc(N2CC=CC2)c(Cl)c1 (centres unmarked) [pirprofen],"DILI +VE (5-8), DILI -VE (-4)",[2],+VE
same,DILI severity category,[2],vMost-DILI-Concern
same,In vivo DILI,[1]; […],+VE
same,In vivo DILI,[1]; ref Aleo 2019,+VE
same,Partition Hybrid HRM Score,[3],+VE
same,Ro2 Hybrid HRM Score,[3],-VE
C[C@]12C=CC(=O)C=C1CC[C@@H]1[C@@H]2C(=O)C[C@@]2(C)[C@H]1CC[C@]2(O)C(=O)CO [prednisone],Structural based (HCI),"human hepatocytes; In vitro Assay, ref Xu 2008",-VE
CNCCCC1c2ccccc2C=Cc2ccccc21 [protriptyline],"DILI +VE (5-8), DILI -VE (-4)",[2],-VE
same,DILI severity category,[2],vNo-DILI-Concern
same,Cellular toxicity (3T3 cells),[4],-VE
same,Combined Assay,[4],+VE
same,GSH adduct HML,[4],-VE
same,Hepatocyte cellular toxicity,[4],-VE
same,MitoTox 3T3,[4],+VE
same,TDI CYP3A4,[4],-VE
same,hBSEP inhibition,[4],-VE
same,In vivo DILI,[1]; ref Aleo 2019,-VE
same,In vivo DILI,[1]; ref Schadt 2015,-VE
same,Partition Hybrid HRM Score,[3],-VE
same,Ro2 Hybrid HRM Score,[3],-VE
CCOc1ccccc1OCCN[C@H](C)Cc1ccc(OC)c(S(N)(=O)=O)c1 [tamsulosin],"DILI +VE (5-8), DILI -VE (-4)",[2],+VE
same,DILI severity category,[2],vLess-DILI-Concern
same,Cellular toxicity (3T3 cells),[4],-VE
same,Combined Assay,[4],-VE
same,GSH adduct HML,[4],-VE
same,Hepatocyte cellular toxicity,[4],-VE
same,MitoTox 3T3,[4],-VE
same,TDI CYP3A4,[4],-VE
same,hBSEP inhibition,[4],-VE
same,In vivo DILI,[1]; ref Aleo 2019,+VE
same,In vivo DILI,[1]; ref Schadt 2015,-VE
same,Partition Hybrid HRM Score,[3],-VE
same,Ro2 Hybrid HRM Score,[3],-VE
Cc1nc(C)c2c(n1)N(Cc1ccc(-c3ccccc3-c3nnn[nH]3)cc1)C(=O)CC2 [tasosartan],Cellular toxicity (3T3 cells),[4],-VE
same,Combined Assay,[4],+VE
same,GSH adduct HML,[4],-VE
same,Hepatocyte cellular toxicity,[4],+VE
same,MitoTox 3T3,[4],-VE
same,TDI CYP3A4,[4],-VE
same,hBSEP inhibition,[4],+VE
same,Partition Hybrid HRM Score,[3],+VE
same,Ro2 Hybrid HRM Score,[3],+VE
CN1CCN(CC/C=C2/c3ccccc3Sc3ccc(S(=O)(=O)N(C)C)cc32)CC1 [thiothixene],Structural based (HCI),"human hepatocytes; In vitro Assay, ref Xu 2008",-VE
OC(CCN1CCCCC1)(c1ccccc1)C1CCCCC1 (centres unmarked) [trihexyphenidyl],"DILI +VE (5-8), DILI -VE (-4)",[2],-VE
same,DILI severity category,[2],vNo-DILI-Concern
same,In vivo DILI,[1]; ref Aleo 2019,-VE
same,Partition Hybrid HRM Score,[3],-VE
same,Ro2 Hybrid HRM Score,[3],-VE
Nc1ncnc2c1ncn2[C@@H]1O[C@H](CO)[C@@H](O)[C@@H]1O [vidarabine],Structural based (HCI),"human hepatocytes; In vitro Assay, ref Xu 2008",-VE
